From patent US8883856B2, “Compositions and methods for the treatment of inflammatory diseases using topoisomerase inhibitors” (priority 2000, dated 2014)
Read-outs that look alike come from different tables or passages of the source.

Columns and labels:
neutrophils [1] = experiment: Neutrophil apoptosis, agarose gel DNA laddering; assay type: cell-based, human
From the text: The inflammation associated with many forms of arthritis is thought to arise from the presence of large numbers of immune cells, such as neutrophils, in the synovial joints of humans. The extended inflammation associated with crystal induced arthritis arises from the interaction of neutrophils with crystals in the synovial joint. One reason the extended duration of the inflammation in this disease may be due to the inhibition of neutrophil apoptosis by crystals. This inhibition may result in the neutrophils remaining in the joint for extended periods. Compounds that overcome this crystal induced suppression of neutrophil apoptosis therefore allow the more rapid clearance of these cells from the joint with the appropriate abatement of inflammation. The process of apoptosis involves the endonuclease driven cleavage of DNA into fragments which may be visualized as a ladder of bands in an agarose gel electrophoresis experiment. Other assays that may be used include caspase 3 quantitation or measurements of cytoplasmic DNA concentration. […] Agents that inhibit caspase activation levels or reduce cytoplasmic DNA are pro-survival (potentially inflammatory) and agents that promote are pro-apoptotic and anti-inflammatory. The use of these methods and their role in neutrophil affected inflammation is described in detail in Tudan et al. J Rheumatol. 27 p 2463-72. 2000. […]

rat carotid artery = assay type: in vivo; details: for inhibition of luminal narrowing / inhibition of intimal hyperplasia: perivascular
From the text: In this model of restenosis, a balloon catheter is used to induce damage to the lumen of carotid arteries in rats. This damage causes extensive intimal hyperplasia and luminal narrowing, characteristic of restenosis. To determine the effect of drugs as antirestenosis agents, a polymeric dosage form of a drug is applied to the outside of the artery (perivascular application).
Wistar rats weighing 400 g to 500 g were anesthetized with halothane. A vertical incision was made over the trachea and the left carotid artery was exposed. Two ligatures were placed around the external carotid artery and an arteriotomy was made between them. A 2 French Fogarty balloon catheter was introduced into the external carotid artery and pushed into the left common carotid artery and the balloon was inflated with saline. The catheter was passed up and down the entire length of the carotid artery three times to stretch the vessel and denude the endothelium. The catheter was removed and the ligatures were tied off on the external carotid artery. […] The wound was then closed and the animals recovered. After 14 days, the rats were sacrificed and pressure perfused at 100 mmHg with 10% buffered formaldehyde. Both carotid arteries were harvested and processed for histology. Serial cross-sections were cut every 2 mm within and outside the implant in the injured left carotid artery and at corresponding levels in the control right carotid artery. Sections were stained with hematoxylin-and-eosin and Movat's stains and digitized for computer assisted morphometric analysis to quantify luminal narrowing and intimal hyperplasia.

[2] = Perivascular injection of polymeric paste at the rat carotid artery; assay type: in vivo, Wistar rats; details: 1% loading in 40% Triblock / 60% MePEG350 paste, 0.1 to 0.2 ml
From the text: Wistar rats weighing 400 g to 500 g were anesthetized with halothane. A vertical incision was made over the trachea and the left external carotid artery was exposed. Connective tissue around the left common carotid artery was left untouched. Two ligatures were placed around the external carotid artery and an arteriotomy was made between them. A 2 French Fogarty balloon was introduced into the external carotid artery and pushed into the left common carotid artery and the balloon was inflated with saline. The balloon was passed up and down the entire length of the carotid artery three times to stretch the vessel and denude the endothelium. The balloon was removed and the ligatures tied off on the external carotid artery. Camptothecin (1% loading) in a polymeric paste (40% Triblock (Angiotech pharmaceuticals) and 60% Methoxypolyethylene glycol (MePEG350)) or the carrier paste alone was injected through a 24 G angiocatheter between a distal segment of the common carotid artery and the surrounding connective tissue. Typically, 0.1 to 0.2 ml of paste was applied around the artery in 4 injections in order to cover the whole circumference of the vessel on a length of approximately 1 cm. The wound was then closed and the animals recovered.

neutrophils [3] = experiment: Neutrophil superoxide anion generation (cytochrome c reduction); assay type: cell-based, human; details: CPPD crystals or fMLP
Method: Superoxide anion concentrations were measured using the superoxide dismutase inhibitable reduction of cytochrome c assay. Twenty five mg of crystals or fMLP (final concentration 1 uM with cytochalasin B at 0.5 uM) were placed in 1.5 mL capped Eppendorf tubes and warmed to 37° C. To the tubes were added 0.5 mL of cells at 37° C. and ferricytochrome c (horse heart, type 3) (final concentration 1.2 mg/mL) and the cells were activated by shaking the capped tubes. At appropriate times, tubes were centrifuged at 10,000×g for 10 seconds and the supernatant collected for spectrophotometric assay at 550 nm. Control tubes were set up under the same conditions with the inclusion of superoxide dismutase at 600 units per mL. Plumbagin inhibited the generation of superoxide anions from neutrophils activated by both CPPD crystals or fMLP as shown in FIG. 3.

CC[C@@]1(O)C(=O)OCc2c1cc1n(c2=O)Cc2cc3ccccc3nc2-1 [camptothecin]
apoptosis in neutrophils first incubated with CPPD crystals (neutrophils [1]; CPPD crystals 1 hour, then drug 0.1 uM 4 hours): extensive apoptosis | DNA laddering (apoptosis) in neutrophils (neutrophils [1]; drug alone, 0.1 uM, 4 hours): extensive DNA laddering | inhibition of luminal narrowing (rat carotid artery; 0.2% (w/w to EVA) film): more than 50% | inhibition of intimal hyperplasia (rat carotid artery; 0.2%, 1% and 10% loaded EVA films, 14 days): partial inhibition | inhibition of intimal hyperplasia (rat carotid artery; 20% loaded EVA film, 14 days): Complete inhibition | luminal narrowing (rat carotid artery; all concentrations above 0.2% in EVA film): reduced the luminal narrowing to almost zero | adverse effects of perivascular paste injection [2]: no adverse effects noted in any animal

COc1cccc2c1C(=O)c1c(O)c3c(c(O)c1C2=O)C[C@@](O)(C(=O)CO)C[C@@H]3O[C@H]1C[C@H](N)[C@H](O)[C@H](C)O1 [doxorubicin]
inhibition of intimal hyperplasia (rat carotid artery; 2% loading (w/w to EVA) film): completely inhibited | inhibition of luminal narrowing (rat carotid artery; 2% loading (w/w to EVA) film): completely inhibited | necrosis or toxicity after perivascular application (rat carotid artery; rat, in vivo): did not induce any necrosis or toxicity in surrounding tissue

COc1cc([C@@H]2c3cc4c(cc3[C@@H](O[C@@H]3O[C@@H]5CO[C@@H](C)O[C@H]5[C@H](O)[C@H]3O)[C@H]3COC(=O)[C@H]23)OCO4)cc(OC)c1O [etoposide]
inhibition of intimal hyperplasia (rat carotid artery; both 1% and 5% loaded EVA films): approximately 75% | necrosis or toxicity after perivascular application (rat carotid artery; rat, in vivo): did not induce any necrosis or toxicity in surrounding tissue

CC1=CC(=O)c2c(O)cccc2C1=O [plumbagin]
generation of superoxide anions from activated neutrophils (neutrophils [3]): inhibited | necrosis or toxicity after perivascular application (rat carotid artery; applied to the perivascular side of the rat carotid artery): excessive toxicities
